Values after ≈ are worked out from the molar mass of the structure shown. Values joined by “and” are separate entries in the source; they are usually repeats but may differ in a detail not shown here. Equal entries are not always repeated.
Tests used:
[1] = tested on: human hepatoma cells Hep-g2; assay: MTT assay on human hepatoma cells Hep-g2; assay type: cell-based; conditions: HepG2, 48 hrs, OD 490 nm, read-out: 1050 value (cell viability curve)
Experimental: a. 250 mg of 3-(4,5-dimethylthiazol-2-yl)-2,5-diphenyltetrazolium bromide (MTT) was dissolved by 50 mL of phosphate buffered saline (PBS) having a concentration of 0.01 mol/L and PH=7.45 to yield a MTT solution having a final concentration of 5 mg/mL. The MTT solution was dispensed and protected against light at the temperature of −20° C. after filtration and sterilization.
b. A suspension of single cell line was prepared and inoculated into 96-well plate (cells were diluted to a concentration of 4×10^4/mL by the F-12K basic culture medium, 100 μL diluted cells were added to each well and cultivated at 37° C., 5% CO2 for 20 hrs, each group was provided with 4 parallel samples).
c. The culture medium was removed; and new culture mediums were prepared according to serial concentration of the antitumor drug (C310-6), each well was added with 100 μL of the new culture medium and cells were cultivated for 48 hrs.
d. 20 μL of MTT solution having the concentration of 5 mg/mL was added to each well for incubating the cells for 4 hrs.
e. […]
f. OD values were measured by a microplate reader, λ=490 nm
g. A cell viability curve was charted, 1050 value was calculated to be 14.152 μg/mL, which means that the compound has excellent human hepatoma cells Hep-g2 activity resistance.

[2] = tested on: human lung cancer cells A549; assay: MTT assay on human lung cancer cells A549; assay type: cell-based; conditions: A549 section, 48 hrs, OD 490 nm, read-out: 1050 value (cell viability curve)
[3] = tested on: H22 liver cancer model; assay: Antitumor experiment against H22 tumor bearing mice; assay type: in vivo; conditions: 10 days; for Net weight variation (g) / Tumor weight: x ± s
From the text: Antitumor Experiment of C310-6 Against H22 Tumor Bearing Mice
H22 tumor bearing mice were adopted to observe the effect of the anti-liver cancer of five classes of mixtures.
H22 tumor bearing mouse inoculated with the tumor for 8-13 days and in good condition was killed by dislocation. Body surface of the mouse was disinfected by alcohol. The tumors were separated from the mouse and placed in sterile petri dish containing normal saline in a sterile environment (super clean bench). The tumors were cut into small piece and transferred to a tissue homogenizer, the normal saline was added with a volume ratio of the tumor piece to the normal saline being 1:3, a resulting homogenate was put into a 50 mL sterile centrifuge tube. 0.2 mL of the homogenate was inoculated to right axilla of each C57BL/6 mouse by 1 mL syringe. The tumor cell suspension was prepared in the sterile environment (the super clean bench), and the serial operations from separation of the abdominal dropsy of the tumor to the tumor inoculation were accomplished in 60 min
(§1) Oral agent of C310-6: a certain weight of C310-6 sample was placed in a mortar, and Tween-80 having a volume of 2% of a certain volume of a solvent was added and fully ground. Thereafter, the normal saline was added and fully stirred to form a solution. Solutions having a concentration of the C310-6 sample of 24 mg/mL, 8 mg/mL, and 2.7 mg/mL were prepared.
(§2) Oral agent of CTX: CTX pill was removed from a film and a certain amount of the pill was placed in a mortar. A certain volume of normal saline was added, fully ground, and mixed to prepare a solution having a concentration of CTX to be 3.4 mg/mL.
(§3) 60 experimental mice were divided into 6 groups with each group having 10 mice, a half of the mice being female and another half of the mice being male. The groups are specifically as follows: 1) group administered with a low dose of C310-6 (27 mg/kg), 2) group administered with middle dose of C310-6 (80 mg/kg), 3) group administered with high dose of C310-6 (240 mg/kg), 4) group administered with CTX, 5) model group, and 6) blank control group. The above groups, except the model group and the blank control group, are administered with 0.3 mL of the drugs once a day after the injection of the tumor suspension, and the administration was lasted for 10 days. The model group and the blank control group are administered orally with equal volume of aqua solutions containing 2 v. % of Tween-80 for 10 days.
(§4) The weight and food intake of the mice were weighed and recorded every day, and a net weight of each mouse after tumor removal was calculated at the last time.
(§5) The separated tumor tissue was weighed, and the inhibition rate on the tumor growth was calculated according to the following equation: […]
Data of mice in each group were expressed by and were processed by SPSS software, each group was examined by one-way ANOVA.

[4] = tested on: Lewis lung cancer model; assay: Anti-Lewis tumor experiment (Lewis lung cancer bearing mouse); assay type: in vivo; conditions: Lewis mice, 10 days; for Net weight variation (g) / Tumor weight: x ± s
From the text: The purpose of the experiment was adopting the Lewis tumor bearing mouse model to observe the antitumor effect of C310-6.
Tumor bearing mouse inoculated with the tumor for 8-13 days and in good condition was killed by dislocation. Body surface of the mouse was disinfected by alcohol. The tumors were separated from the mouse and placed in sterile petri dish containing normal saline in a sterile environment (super clean bench). The tumors were cut into small piece and transferred to a tissue homogenizer, the normal saline was added with a volume ratio of the tumor piece to the normal saline being 1:3, a resulting homogenate was put into a 50 mL sterile centrifuge tube. 0.2 mL of the homogenate was inoculated to right axilla of each KM mouse by 1 mL syringe. The tumor cell suspension was prepared in the sterile environment (the super clean bench), and the serial operations from the tumor separation to the tumor inoculation were accomplished in 60 min
as §1, §2
as §3, with “0.2” for “0.3”
as §4, §5
Data of mice in each group were expressed by corresponding data and were processed by SPSS software, each group was examined by one-way ANOVA.

[5] = tested on: human hepatoma cells Hep-g2; assay: iCELLigence real-time cell-analyzer (RTCA) growth monitoring, Hep-g2; assay type: cell-based; conditions: 1.6-100 μg/mL, 48 hrs, FIG. 6
Experimental: 1. Eight-well plate (E-Plate L8) supplied by ACEA Bio (Hangzhou) Co. Ltd. was combined with an iCELLigence real-time cell-analyzer (RTCA). 150 μL of a complete F-12K medium was added to each well and the eight-well plate was placed in an incubator at a temperature of 37° C. and an atmosphere of 5% CO2, and the background data were regulated to 40-130. The compound C310-6 was fully dissolved by dimethyl sulfoxide to concentrations of 100 mg/mL, 50 mg/mL, 25 mg/mL, 12.5 mg/mL, 6.3 mg/mL, 3.1 mg/mL, and 1.6 mg/mL, and then diluted to by the complete F-12K medium obtain working solutions having concentrations of 10 mg/mL, 5 mg/mL, 2.5 mg/mL, 1.25 mg/mL, 0.63 mg/mL, 0.31 mg/mL, and 0.16 mg/mL. Well cultivated human hepatoma cells Hep-g2 were digested by trypsin and diluted into live cell suspensions with a concentration of 4×10^4/mL. Thereafter, 345 μL of the live cell suspension of C310-6 was inoculated to each well of an eight-well plate, and then 5 μL of the working solution was added to each well to enable final concentrations of the C310-6 compound to be 100 μg/mL, 50 μg/mL, 25 μg/mL, 12.5 μg/mL, 6.3 μg/mL, 3.1 μg/mL, and 1.6 μg/mL. An eighth hole was added with the complete F-12K medium containing 1 wt. % of dimethyl sulfoxide as a blank control group, and was displaced into the incubator at 37° C. and 5% CO2 for 48 hrs.

[6] = tested on: human lung cancer cells A549; assay: iCELLigence real-time cell-analyzer (RTCA) growth monitoring, A549; assay type: cell-based; conditions: 1.6-100 μg/mL, 48 hrs, FIG. 7

SMILES: CC(C)[C@@H](C)/C=C/[C@H](C)[C@@H]1CC[C@@H]2C3=CC=C4C[C@H](O)CC[C@@]4(C)[C@@H]3CC[C@]21C [C310-6, (3α,9β,10α,13α,14β,17α,20S,22E)-ergosta-5,7,22-trien-3-ol]
- IC50 [1]: 14.2 mg/L (≈ 35.7 µM)
- IC50 [2]: 14.2 mg/L (≈ 35.7 µM)
- Liver transfer rate (%) ([3]; 27 mg/kg oral once a day): 0%
- Survival rate (%) ([3]; 27 mg/kg oral once a day): 100%
- Tumor inhibition rate (%) ([3]; 27 mg/kg oral once a day): 23.4%
- Net weight variation (g) ([3]; 27 mg/kg oral once a day): 6.92 ± 2.65∘∘ g
- Tumor weight ([3]; 27 mg/kg oral once a day): 0.42 ± 0.60 g
- Liver transfer rate (%) ([3]; 80 mg/kg oral once a day): 0%
- Survival rate (%) ([3]; 80 mg/kg oral once a day): 100%
- Tumor inhibition rate (%) ([3]; 80 mg/kg oral once a day, 80 mg/kg): > 40% and 41.1%
- Net weight variation (g) ([3]; 80 mg/kg oral once a day): 7.78 ± 3.72∘∘ g
- Tumor weight ([3]; 80 mg/kg oral once a day): 0.32 ± 0.43 g
- Liver transfer rate (%) ([3]; 240 mg/kg oral once a day): 0%
- Survival rate (%) ([3]; 240 mg/kg oral once a day): 100%
- Tumor inhibition rate (%) ([3]; 240 mg/kg oral once a day, 240 mg/kg): > 40% and 64.4%
- Net weight variation (g) ([3]; 240 mg/kg oral once a day, weight after tumor removal vs original): 5.70 ± 4.05*※∘∘ g
- Tumor weight ([3]; 240 mg/kg oral once a day): 0.19 ± 0.18 g
- Lung cancer transmission rate (%) ([4]; 27 mg/kg oral once a day): 40%
- Survival rate (%) ([4]; 27 mg/kg oral once a day): 100%
- Tumor inhibition rate (%) ([4]; 27 mg/kg oral once a day): 15.76%
- Net weight variation (g) ([4]; 27 mg/kg oral once a day): −0.36 ± 1.33**※※ g
- Tumor weight ([4]; 27 mg/kg oral once a day): 1.42 ± 0.94 g
- Lung cancer transmission rate (%) ([4]; 80 mg/kg oral once a day): 50%
- Survival rate (%) ([4]; 80 mg/kg oral once a day): 100%
- Tumor inhibition rate (%) ([4]; 80 mg/kg oral once a day): 28.39%
- Net weight variation (g) ([4]; 80 mg/kg oral once a day): −0.95 ± 1.30**※※ g
- Tumor weight ([4]; 80 mg/kg oral once a day): 1.21 ± 0.26 g
- Lung cancer transmission rate (%) ([4]; 240 mg/kg oral once a day): 30%
- Survival rate (%) ([4]; 240 mg/kg oral once a day): 100%
- Tumor inhibition rate (%) ([4]; 240 mg/kg oral once a day): 44.59%
- Net weight variation (g) ([4]; 240 mg/kg oral once a day): −0.61 ± 1.36**※※ g
- Tumor weight ([4]; 240 mg/kg oral once a day): 0.93 ± 0.45 g
- growth of human hepatoma cells Hep-g2 (real-time data) [5]: inhibited
- growth of human lung cancer cells A549 (real-time data) [6]: inhibited

SMILES: O=P1(N(CCCl)CCCl)NCCCO1 (centres unmarked) [CTX, cyclophosphamide, reference compound]
- Liver transfer rate (%) ([3]; 20 mg/kg oral once a day): 0%
- Survival rate (%) ([3]; 20 mg/kg oral once a day): 100%
- Tumor inhibition rate (%) ([3]; 20 mg/kg oral once a day): 52.9%
- Net weight variation (g) ([3]; 20 mg/kg oral once a day): 1.73 ± 2.73**※※ g
- Tumor weight ([3]; 20 mg/kg oral once a day): 0.25 ± 0.21 g
- Lung cancer transmission rate (%) ([4]; 20 mg/kg oral once a day): 20%
- Survival rate (%) ([4]; 20 mg/kg oral once a day): 100%
- Tumor inhibition rate (%) ([4]; 20 mg/kg oral once a day): 46.29%
- Net weight variation (g) ([4]; 20 mg/kg oral once a day): −0.94 ± 1.03**※※ g
- Tumor weight ([4]; 20 mg/kg oral once a day): 0.90 ± 0.39 g

— patent US9896474B2, “(3A,9B,10A,13A,14B,17A,20S,22E)-ergosta-5,7,22-trien-3-ol and methods of preparing and using the same” (priority 2014, dated 2018)
